Measurements taken from patent US20210177847A1, “Compounds for treatment of diseases related to DUX4 expression” (Facio Intellectual Property B.V., priority 2017, published 2021).
Like-named read-outs stand apart in the source and are kept apart here.

Tests used:
DUX4 = experiment: High-content immunocytochemistry assay of endogenous DUX4 expression in differentiating primary FSHD myotubes; assay type: cell-based, human; details: for EC50: Homo sapiens, Myotube, read-out: half maximal effective concentration (EC50), DUX4 repression
Source text: A quantitative assay readout was developed based on script-based image analysis. Cells were stained according to example 1, also using DAPI to detect myonuclei and an antibody against myosin heavy chain (MHC) to visualize the formation of myotubes. To analyse the images, an automated script was developed, enabling the detection of nuclei, myotube borders and DUX4 signals, with the script also detecting artefacts to reduce false positive signals. The script enabled multiple validated readouts including the number of DUX4 positive nuclei and nuclei clusters, the fusion index, myotube area, myotube width and myotube skeleton length (see FIG. 2). Additionally, the total nuclei count was included as a measure of cell loss or compound toxicity. The script was validated by evaluating endogenous DUX4 expression in the primary myotubes, and results were in line with literature values, with the number of DUX4 expressing nuclei being <0.5%.
A compound library containing approximately 5000 annotated compounds was screened in the high-content assay. For this purpose, primary myoblasts were seeded in 384 well plates after which the growth medium was replaced with differentiation medium. After 3 days of differentiation, cells were treated with library compounds (in duplicate on different screening plates) for 15 h, after which they were fixed and stained with antibodies against DUX4, antibodies against myosin heavy chain (MHC), and with DAPI (4′,6-diamidino-2-phenylindole). Script-based analysis provided readouts for DUX4 expression (count of DUX4-positive nuclei or DUX4 intensity) and for potential toxicity (fusion index and nuclei count). The majority of the approximately 200 hits was confirmed in an experiment using the same assay and 5 replicates. These compounds were selected for further concentration-response profiling.
The DUX4 repression of CK1 inhibitors was assayed following the protocol of Example 2, illustrated in FIG. 4A. […] Compounds were incubated with primary FSHD cells for 15 hours, as indicated by the arrow in FIG. 4A.

CK1α = CK1α (Homo sapiens, UniProt P48729); experiment: CK1α inhibition IC50; assay type: biochemical; details: Table 3; read-out: CK1 a IC50
Sequence of CK1α (P48729 whole entry): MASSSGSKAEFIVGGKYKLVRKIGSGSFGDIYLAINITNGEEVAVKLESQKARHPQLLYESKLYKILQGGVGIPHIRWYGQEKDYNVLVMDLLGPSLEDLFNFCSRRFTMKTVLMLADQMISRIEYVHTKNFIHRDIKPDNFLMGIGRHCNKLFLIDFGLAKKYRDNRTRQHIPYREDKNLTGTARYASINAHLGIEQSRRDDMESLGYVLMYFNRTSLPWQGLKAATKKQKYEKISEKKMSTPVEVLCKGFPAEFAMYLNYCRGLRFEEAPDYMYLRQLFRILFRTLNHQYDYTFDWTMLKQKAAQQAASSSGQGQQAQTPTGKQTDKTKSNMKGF

CK1δ = CK1δ (Homo sapiens, UniProt P48730); experiment: CK1δ inhibition IC50; assay type: biochemical; details: Table 3; read-out: CK1 d IC50
Sequence of CK1δ (P48730 whole entry): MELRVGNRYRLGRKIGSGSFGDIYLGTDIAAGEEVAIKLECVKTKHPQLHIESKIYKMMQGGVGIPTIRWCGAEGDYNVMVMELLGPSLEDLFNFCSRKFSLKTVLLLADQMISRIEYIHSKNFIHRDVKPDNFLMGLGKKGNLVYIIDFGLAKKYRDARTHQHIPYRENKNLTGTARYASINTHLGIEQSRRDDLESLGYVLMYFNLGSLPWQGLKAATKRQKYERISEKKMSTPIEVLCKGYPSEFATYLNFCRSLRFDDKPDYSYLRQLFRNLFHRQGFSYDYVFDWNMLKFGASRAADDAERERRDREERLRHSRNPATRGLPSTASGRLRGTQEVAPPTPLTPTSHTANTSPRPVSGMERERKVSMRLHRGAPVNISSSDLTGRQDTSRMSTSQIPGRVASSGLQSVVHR

CK1ε = CK1ε (Homo sapiens, UniProt P49674); experiment: CK1ε inhibition IC50; assay type: biochemical; details: Table 3; read-out: CK1 e IC50
Sequence of CK1ε (P49674 whole entry): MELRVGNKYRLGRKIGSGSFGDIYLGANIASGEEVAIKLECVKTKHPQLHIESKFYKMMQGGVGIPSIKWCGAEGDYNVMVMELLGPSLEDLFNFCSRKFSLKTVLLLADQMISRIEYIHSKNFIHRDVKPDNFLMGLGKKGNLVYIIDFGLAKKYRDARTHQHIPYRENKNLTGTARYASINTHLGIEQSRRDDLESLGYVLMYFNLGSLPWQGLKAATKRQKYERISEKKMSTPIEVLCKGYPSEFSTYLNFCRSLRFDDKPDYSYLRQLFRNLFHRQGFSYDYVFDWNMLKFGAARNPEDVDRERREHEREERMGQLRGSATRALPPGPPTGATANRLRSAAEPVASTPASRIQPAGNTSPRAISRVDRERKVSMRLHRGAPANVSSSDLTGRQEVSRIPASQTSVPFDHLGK

p38α = p38α (Homo sapiens, UniProt Q16539); experiment: p38α inhibition IC50; assay type: biochemical; details: Table 3; read-out: p38a IC50
Sequence of p38α (Q16539 whole entry): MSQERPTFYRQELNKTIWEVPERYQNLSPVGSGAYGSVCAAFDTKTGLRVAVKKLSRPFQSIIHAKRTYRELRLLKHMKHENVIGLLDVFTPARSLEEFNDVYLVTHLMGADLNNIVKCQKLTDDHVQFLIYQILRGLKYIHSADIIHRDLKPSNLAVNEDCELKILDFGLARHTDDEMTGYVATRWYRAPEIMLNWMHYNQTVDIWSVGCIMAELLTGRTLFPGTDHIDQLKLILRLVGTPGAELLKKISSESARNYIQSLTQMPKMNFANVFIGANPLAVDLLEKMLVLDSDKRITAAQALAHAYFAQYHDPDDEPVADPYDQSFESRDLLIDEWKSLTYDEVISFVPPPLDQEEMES

[1] = primary FSHD cells, compounds incubated 15 hours, Table 3

SMILES | EC50 (DUX4; [1]) | IC50 (CK1α) | IC50 (p38α) | further results
CC1(C)CN(c2ccc3nc(-c4ccc(F)cc4)c(-c4ccncc4)n3n2)CCN1 [Compound A] | 40 to 50 nM |  |  | 
CN1CCN(c2ccc3nc(-c4ccc(F)cc4)c(-c4ccncc4)n3n2)CC1 [Compound B] | 2000 nM |  |  | 
CNc1nccc(-c2c(-c3ccc(F)cc3)ncn2C2CCN(Cc3ccon3)CC2)n1 [Compound C] | 1100 to 1400 nM |  |  | 
CN1Cc2nccc(-c3cn(C)nc3-c3ccc(F)cc3)c2C1=O [Compound E] |  |  |  | EC50 (DUX4; 15 h): 1900 to 3100 nM
Cn1cc(-c2ccnc3c2C(=O)N(C2CCOCC2)C3)c(-c2ccc(F)cc2)n1 [Compound F] | 1500 to 2600 nM |  |  | 
COCCN1Cc2nccc(-c3cn(C)nc3-c3ccc(F)cc3)c2C1=O [Compound G] | 1700 to 4500 nM | 2590 nM | 712 nM | IC50 (CK1δ): 41.8 nM; IC50 (CK1ε): 92.1 nM
Fc1ccc(-c2nc3ccc(N4CCNCC4)nn3c2-c2ccncc2)cc1 [Compound H] | 10 to 46 nM | 22 nM | 14.8 nM | IC50 (CK1δ): 16.5 nM; IC50 (CK1ε): 9.41 nM
CNCc1cc(-c2cn(C)nc2-c2ccc(F)cc2)ccn1 [Compound I] |  | 1760 nM | 3070 nM | EC50 (DUX4; 15 h): 3100 to 5500 nM; IC50 (CK1δ): 57.7 nM; IC50 (CK1ε): 89 nM
Fc1ccc(-c2nc(-c3c(F)cccc3F)[nH]c2-c2ccncc2)cc1 [Compound O] | 710 nM |  |  | 
COc1cc(OC)c2c(=O)[nH]c(-c3cc(C)c(OCCO)c(C)c3)nc2c1 [RVX-208, reference compound] |  |  |  | effect on DUX4 expression (DUX4; irrespective of treatment time (15 h or 72 h), not shown): did not show any effect on DUX4 expression
Fc1cccc(-n2cnc3c(NCc4nc5ccc(F)c(F)c5[nH]4)nc(N4CCOCC4)nc32)c1 [SR-3029, reference compound] |  | 1000 nM | 1000 nM | EC50 (DUX4; 15 h): 50 to 120 nM

Further lines, with some results ahead:

EC50 (DUX4; [1]) | SMILES | IC50 (CK1α) | IC50 (p38α) | further results
430 nM | Nc1nccc(-c2c(-c3ccc(F)cc3)ncn2C2CCCCC2)n1 [PF-670462, reference compound] |  |  | 
310 nM | Nc1nccc(-c2c(-c3ccc(F)cc3)ncn2C2CCN(Cc3ccon3)CC2)n1 [PF-5006739, reference compound] |  |  | 
